From patent US9302999B2, “Substituted triazoles as herbicides” (E. I. DU PONT DE NEMOURS AND COMPANY, priority 2012, dated 2016)

Experiments:
Assay type in all cases: in vivo
[1] = system: Common Chickweed (STEME, Stellaria media); test: Test H post-emergence, alone and in combination: Common Chickweed
Description: (§1) Seeds of plant species selected from wheat (TRZAW, Triticum aestivum), barley (HORBW, Hordeum vulgare), Kochia (KCHSC, Kochia caoparia) blackgrass (ALOMY, Alopecurus myosuroides), canarygrass (PHAMI, Phalaris minor), Italian ryegrass (LOLMU, Lolium multiflorum) common lambsquarter (CHEAL, Chenopodium album), pigweed (AMARE, Amaranthus retroflexus), Common Chickweed (STEME, Stellaria media), Russian thistle (SASKR, Salsola iberica), Wild Buckwheat (POLCO, Polygonum convolvulus), Catchweed Bedstraw (GALAP, Galium aparine), Mustard (SINAR, Sinapisar arvensis), Henbit Deadnettle (LAMAM, Lamium amplexicaule), Wild Radish (RAPRA, Raphanus raphanistrum), Field Poppy (PAPRH, Papaver rhoeas), Field Violet (VIOAR, Viola arvennsis), Scentless Chamomile (MATIN Matricaria inodora) were planted into soil and treated post-emergence with test chemicals formulated in a non-phytotoxic solvent mixture. Plants were grown in a greenhouse using supplemental lighting to maintain a photoperiod of approximately 14 hours; daytime and nighttime temperatures were approximately 23°-29° and 16°-19° Celsius, respectively. Balanced fertilizer was applied through the watering system. Treated plants and controls were maintained in a greenhouse for 20 days, after which time all species were compared to controls and visually evaluated. Plant response ratings were calculated as the mean of three replicates (unless otherwise indicated), are summarized in Table G, and are based on a scale of 0 to 100 where 0 is no effect and 100 is complete control. A dash (-) response means no test result.

[2] = system: Mustard (SINAR, Sinapisar arvensis); test: Test H post-emergence, alone and in combination: Mustard
Description: as §1

[3] = system: Field Poppy (PAPRH, Papaver rhoeas); test: Test H post-emergence, alone and in combination: Field Poppy
Description: as §1

[4] = system: smartweed (ladysthumb smartweed, Polygonum persicaria); test: Test F pre-/postemergence: smartweed
Description: Seeds of plant species selected from corn (Zea mays), soybean (Glycine max), velvetleaf (Abutilon theophrasti), lambsquarters (Chenopodium album), poinsettia, wild (wild poinsettia, Euphorbia heterophylla), pigweed, palmer (palmer pigweed, Amaranthus palmeri), waterhemp (common waterhemp, Amaranthus rudis), surinam grass (Brachiaria decumbens), crabgrass, Brazil (Brazilian crabgrass, Digitaria horizontalis), panicum, fall (fall panicum Panicum dichotomiflorum), crabgrass, large (large crabgrass, Digitaria sanguinalis), foxtail, giant (giant foxtail, Setaria faberii), foxtail, green (green foxtail Setaria viridis), goosegrass (Eleusine indica), ragweed (common ragweed, Ambrosia elatior), barnyardgrass (Echinochloa crus-galli), sandbur (southern sandbur, Cenchrus echinatus), arrowleaf sida (Sida rhombifolia), ryegrass, Italian (Italian ryegrass, Lolium multiflorum), dayflower, VA (Virginia (VA) dayflower, Commelina virginica), field bindweed (Convolvulus arvensis), cocklebur (common cocklebur, Xanthium strumarium), morningglory (Ipomoea coccinea), nightshade (eastern black nightshade, Solanum ptycanthum), kochia (Kochia scoparia), nutsedge, yellow (yellow nutsedge, Cyperus esculentus), johnsongrass (Sorghum halepense), smartweed (ladysthumb smartweed, Polygonum persicaria), and beggarticks (hairy beggarticks, Bidens pilosa), were planted into a silt loam soil and treated preemergence with test chemicals formulated in a non-phytotoxic solvent mixture which included a surfactant. At the same time, plants selected from these crop and weed species and also pigweed (Amaranthus retroflexus), waterhemp_RES1 (ALS/Triazine resistant common waterhemp, Amaranthus rudis) and waterhemp_RES2 (ALS/HPPD resistant common waterhemp, Amaranthus rudis) were planted in pots containing a planting medium comprising spaghnum peat moss, vermiculite, wetting agent and starter nutrients treated with postemergence applications of some of the test chemicals formulated in the same manner. Plants ranged in height from 2 to 18 cm for postemergence treatments (1- to 4-leaf stage).
Treated plants and controls were maintained in a greenhouse for 14 to 21 days, after which time all species were compared to controls and visually evaluated. Plant response ratings, summarized in Table E, are based on a scale of 0 to 100 where 0 is no effect and 100 is complete control. A dash (-) response means no test result.

| SMILES | STEME plant response ([1]; Rate 31) | STEME plant response ([1]; Rate 62) | STEME plant response ([1]; Rate 125) | SINAR plant response ([2]; Rate 31) | SINAR plant response ([2]; Rate 62) | SINAR plant response ([2]; Rate 125) | PAPRH plant response ([3]; Rate 31) | PAPRH plant response ([3]; Rate 62) | PAPRH plant response ([3]; Rate 125) | Plant response rating, Smartweed ([4]; Postemergence, 4 g ai/ha, scale 0 to 100) | Plant response rating, Smartweed ([4]; Postemergence, 8 g ai/ha, scale 0 to 100) | Plant response rating, Smartweed ([4]; Postemergence, 16 g ai/ha, scale 0 to 100) | Plant response rating, Smartweed ([4]; Postemergence, 31 g ai/ha, scale 0 to 100) | Plant response rating, Smartweed ([4]; Postemergence, 62 g ai/ha, scale 0 to 100) | Plant response rating, Smartweed ([4]; Preemergence, 4 g ai/ha, scale 0 to 100, 0 no effect, 100 complete control) | Plant response rating, Smartweed ([4]; Preemergence, 8 g ai/ha, scale 0 to 100, 0 no effect, 100 complete control) | Plant response rating, Smartweed ([4]; Preemergence, 16 g ai/ha, scale 0 to 100 (0 no effect, 100 complete control)) | Plant response rating, Smartweed ([4]; Preemergence, 31 g ai/ha, scale 0 to 100 (0 no effect, 100 complete control)) |
| --- | --- | --- | --- | --- | --- | --- | --- | --- | --- | --- | --- | --- | --- | --- | --- | --- | --- | --- |
| Cc1nn(-c2ccc(F)cc2)nc1Oc1ccnc(C(F)(F)F)c1 [Compound 129, 4-[[2-(4-fluorophenyl)-5-methyl-2H-1,2,3-triazol-4-yl]oxy]-2-(trifluoromethyl)pyridine] | 50 | 70 | 80 | 80 | 95 | 95 | 85 | 90 | 90 |  |  |  |  |  |  |  |  |  |
| Cc1nn(-c2ccc(C(F)(F)F)c(F)c2)nc1Cc1ccnc(C(F)(F)F)c1 [Compound 162] |  |  |  |  |  |  |  |  |  | 10 | 10 | 10 | 15 | 15 | 0 | 0 | 0 | 0 |
